In patent US20200360317A1, “CARBOXYLIC ACIDS FOR TREATING/PREVENTING A SKIN DISEASE” (Proponent Biotech GmbH, priority 2016, published 2020):

How the values were obtained:
[1] = in Locke-Ringer Solution
Text: • Identification: Sodium propionate (Sigma-Aldrich, Cat. P5436-100G) • Test Item Name for Report: Sodium propionate • Description: Hygroscopic white powder • Batch Number: Lot.

[2] = system: wound infection of injured skin; experiment: Treatment of infected wound of injured skin; assay type: in vivo; details: skin treated with propionate vs skin treated with water
Text: The study aimed at determining whether treatment with propionate promotes skin health of wound infection of injured skin.

[3] = system: allergic hypersensitivity induced by Nickel allergen (skin); experiment: Nickel-induced allergic contact dermatitis, topical treatment, blinded clinical score of skin lesion; assay type: in vivo, human; details: 4×140 μl of 50 mM Propionate in Locke-Ringer solution over 8 hours, 60 hours after last Nickel contact; vs Locke-Ringer control; n=2
Procedure: The study aimed at determining whether treatment with propionate promotes skin health following allergic hypersensitivity (particularly allergic contact dermatitis).
Allergic hypersensitivity was induced through contact sensitization with Nickel allergen over a 12 hour time period.
The sum of the four scores given blinded to each subject (n=2) yielded in the clinical score. The results can be seen in FIGS. 1 and 2.

In the case of `CCC(=O)[O-].[Na+]` [Sodium propionate], the “Stability of Test Item in Solution” value [1] is reported as no less than 6 months, the “Appearance of skin lesions (FIG. 4)” value [2] is reported as “lesions are significantly reduced” and the “Clinical score of skin lesion (sum of four scores)” value [3] is reported as “clinical score was significantly reduced”.
